Measurements: patent US8987284B2, “Phosphorus containing quinazoline compounds and methods of use” (Newgen Therapeutics, Inc., priority 2009, dated 2015)
Like-named read-outs stand apart in the source and are kept apart here.

How the values were obtained:
[1] = target: T1, EGFR kinase (Homo sapiens, UniProt P00533); test: Kinase assay for EGFR (TR-FRET LanthaScreen); type: biochemical; details: % inhibition at 100 nM or IC50 (nM)
T1 construct: purchased Invitrogen PV3872
Method: The extent to which the compounds of the present invention modulate EGFR kinase activity can be determined using time-resolved Fret (TR-FRET) assay (LanthaScreen® kinase activity assay, from Invitrogen). The assay employs EGFR kinase (PV3872, Invitrogen), Tb-Py20 antibody (PV3552, Invitrogen) and fluorescein-poly GT (PV3610, In vitrogen)
The assay is performed in a Black 384-well plate (available from Corning). EGFR kinase (is diluted in TR-FRET Dilution Buffer (PV3189, InVitrogen) at concentration of 0.4 ug/ml as stock solution, and then 2-fold serial diluted. Addition of 1 mM ATP initiated the reaction, and the reaction is incubated for 1 h reaction at room temperature. 10 μL of the Tb-antibody (from Invitrogen)+EDTA (from Invitrogen) solution prepared was added to each well of the assay plate and mix briefly, and incubated for 30 min. The signal is monitored by using M5 microplate reader (Ex=332 nm, Em=488 nm and 518 nm). Each compound is tested in duplicate wells. EGFR without compound is used as control. Staurosporine (available from Sigma) is used as positive control compound. Inhibition was calculated as percentage of the EGFR activity (without compound)

[2] = system: BT474 cells; test: Cell proliferation inhibition assay for BT474 (CCK-8); type: cell-based; details: Homo sapiens, BT-474; 72 h, 8 points
Method: Human breast cancer BT474 cells was cultured in low glucose DMEM (Life Technologies 12320-032) containing 10% fetal bovine serum (FBS) at 37° C. in a humidified 10% CO2, 90% air incubator. Cells were harvested using trypsin/EDTA, counted using a haemocytometer, and plated 10000 cell/well in a 96-well clear tissue culture plate. The cells were incubated for 24 h at 37° C. to allow adherence. A serials of concentrations of each compound (ranging from 30 uM to […], 5-fold dilution) in 96-well plate, and incubated for 72 h. Each concentration was tested in triplicate wells. During the cell proliferation assay, BT474 cells were cultured in low-glucose DMEM containing 5% FBS, 50 ug/ml gentamicin, and 0.3% v/v DMSO. The culture medium was removed via aspiration, and the cell viability was detected by using CCK-8 cell proliferation kit.

[3] = Pharmacokinetic study in mouse; type: in vivo; parameters: clearance: unit not given here; details: for AUC(0-inf): read-out: AUC0-inf-obs; for half-life: read-out: T½ (converted)
Method: (§1) The dog PK protocol is shown here, while PK study protocol of mouse and rat are similar to dog. Beagle dogs of this study were 6-8 month old and weighed 8 to 10 kg. Example 4 was dissolved in 2% DMA and 98% (40% HP-β-CD in deionized water) to yield concentration at 2 mg/mL for both intravenous (IV, a bolus injection via the lateral tail vein) and oral (PO, via oral gavage) administrations. Blood samples (approximately 1 ml) was collected via cephalic into tubes containing EDTA-K3 anticoagulant pre-dose and post-dose at 5 min, 15 min, 30 min, 1 h, 2 h, 4 h, 6 h, 8 h and 24 h. Blood samples were centrifuged at approximately 8000 rpm for 6 minutes at 2-8° C. and the resulting plasma were separated, labeled and stored frozen at approximately −80° C. Plasma samples analysis was performed by means of LC-MS/MS. The analytical results were confirmed using quality control samples for intra-assay variation.

[4] = Pharmacokinetic study in rat; type: in vivo; parameters: clearance: unit not given here; details: for AUC(0-inf): read-out: AUC0-inf-obs; for half-life: read-out: T½ (converted)
Method: as §1

[5] = Pharmacokinetic study in dog; type: in vivo, Beagle dogs; parameters: clearance: unit not given here; details: for AUC(0-inf): read-out: AUC0-inf-obs; for half-life: read-out: T½ (converted)
Method: as §1

[6] = system: NCI-N87 xenograft; test: Anticancer effect against NCI-N87 xenograft; type: in vivo, Balb/c nude mice
Method: (§2) NCI-N87 cells were purchased from ATCC, and were cultured in RPMI1640+10% FBS+1% P/S antibiotics. Balb/c nude mice were male, 6-8 week old, and weighed 18^±2 g. The cells were implanted subcutaneously into the nude mice (right flank) with 5.0×10^6 cells in 0.1 ml PBS. When the tumor size reached a volume of 200 (150-200) mm^3, the tumor-bearing nude mice derived from NCI-N87 cells were randomly assigned into four groups (10 mice/group). All groups were dosed oral, BID. One group were dosed with vehicle, one group with Lapatinib (75 mg/kg of free base, in the form of ditosylate monoydrate), and the rest two groups with Example 4 (50, 100 mg/kg, p.o. Bid, respectively). The administration period lasted 4 weeks. The tumor volume were measured twice a week, and the body weight were measured immediately before measuring the tumor volume throughout the whole study. On day 11 after initiation of the treatment, the dosing of Example 4 at 100 mg/kg was suspended, and the dosing of the group was resumed on day 15 at a reduced dose of 75 mg/Kg. […] (See FIG. 1).

[7] = Body weight change of NCI-N87 xenograft mice; type: in vivo, Balb/c nude mice; details: po
Method: as §2, with “study.” for “study. On day 11 after initiation of the treatment, the dosing of Example 4 at 100 mg/kg was suspended, and the dosing of the group was resumed on day 15 at a reduced dose of 75 mg/Kg.”

[8] = mouse; cited from earlier work
[9] = rat; cited from earlier work
[10] = dog; cited from earlier work
[11] = plasma, IV, 2 mg/Kg, read-out: Vz

T1 sequence (P00533 25-1210): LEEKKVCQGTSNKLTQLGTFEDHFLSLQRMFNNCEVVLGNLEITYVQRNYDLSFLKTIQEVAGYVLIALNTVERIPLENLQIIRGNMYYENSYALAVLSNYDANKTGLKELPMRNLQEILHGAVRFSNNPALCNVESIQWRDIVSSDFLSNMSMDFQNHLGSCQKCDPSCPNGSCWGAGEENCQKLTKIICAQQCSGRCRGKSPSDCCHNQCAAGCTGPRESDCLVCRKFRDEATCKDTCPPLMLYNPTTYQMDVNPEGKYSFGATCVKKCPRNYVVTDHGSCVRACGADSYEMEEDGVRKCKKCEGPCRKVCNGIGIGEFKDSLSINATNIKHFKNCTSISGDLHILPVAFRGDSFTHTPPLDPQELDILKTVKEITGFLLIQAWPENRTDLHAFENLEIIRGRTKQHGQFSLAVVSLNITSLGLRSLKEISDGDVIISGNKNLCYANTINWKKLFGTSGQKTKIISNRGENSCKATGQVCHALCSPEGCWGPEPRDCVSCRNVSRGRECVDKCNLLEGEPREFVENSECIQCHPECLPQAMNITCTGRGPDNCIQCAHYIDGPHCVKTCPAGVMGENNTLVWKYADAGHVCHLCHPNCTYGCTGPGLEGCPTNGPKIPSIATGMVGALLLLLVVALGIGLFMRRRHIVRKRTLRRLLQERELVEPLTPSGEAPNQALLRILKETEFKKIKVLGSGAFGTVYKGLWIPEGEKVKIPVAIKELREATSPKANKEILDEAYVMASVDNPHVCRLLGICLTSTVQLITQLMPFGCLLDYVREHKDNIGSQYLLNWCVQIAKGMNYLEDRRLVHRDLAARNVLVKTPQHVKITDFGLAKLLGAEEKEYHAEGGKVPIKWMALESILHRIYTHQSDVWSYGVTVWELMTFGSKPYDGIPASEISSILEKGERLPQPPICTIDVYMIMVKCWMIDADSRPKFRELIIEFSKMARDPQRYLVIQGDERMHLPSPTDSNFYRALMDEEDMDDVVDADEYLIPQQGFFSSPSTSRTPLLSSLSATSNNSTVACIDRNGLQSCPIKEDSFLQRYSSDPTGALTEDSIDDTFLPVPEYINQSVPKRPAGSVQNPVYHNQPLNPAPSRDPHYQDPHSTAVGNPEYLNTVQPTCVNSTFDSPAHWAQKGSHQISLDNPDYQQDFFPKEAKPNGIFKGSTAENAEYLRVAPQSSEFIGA

## Cc1cccc(COc2ccc(Nc3ncnc4ccc(-c5ccc(CN6CCP(C)(=O)CC6)o5)cc34)cc2Cl)n1 [Example 9, N-(3-chloro-4-((6-methylpyridin-2-yl)methoxy)phenyl)-6-(5-((4-methyl-1,4-azaphosphino-1-yl)methyl)furan-2-yl)quinazolin-4-amine]
[1]
  EGFR inhibition inhibit % at 100 nM or IC50 (nM): + (between 20% to 50% inhibition at 100 nM, or IC50 between 100 and 1000 nM)
[2]
  IC50: 100 to 1000 nM

## CCN(CCP(C)(C)=O)Cc1ccc(-c2ccc3ncnc(Nc4ccc5c(cnn5Cc5cccc(F)c5)c4)c3c2)o1 [Example 26]
[1]
  EGFR inhibition inhibit % at 100 nM or IC50 (nM): ++ (>50% inhibition at 100 nM, or IC50 <100 nM for EGFR or ErbB2 kinases)
[2]
  IC50: 100 to 1000 nM

## CP(C)(=O)CCNCc1ccc(-c2ccc3ncnc(Nc4ccc5c(cnn5Cc5cccc(F)c5)c4)c3c2)o1 [Example 25, 6-(5-((2-(dimethylphosphinoyl)ethylamino)methyl)furan-2-yl)-N-(1-(3-fluorobenzyl)-1H-indazol-5-yl)quinazolin-4-amine]
[1]
  EGFR inhibition inhibit % at 100 nM or IC50 (nM): ++ (>50% inhibition at 100 nM, or IC50 <100 nM for EGFR or ErbB2 kinases)
[2]
  IC50: 100 to 1000 nM

## CP1(=O)CCN(CC#Cc2ccc3ncnc(Nc4ccc(OCc5cccc(F)c5)c(Cl)c4)c3c2)CC1 [Example 4, N-(3-chloro-4-(3-fluorobenzyloxy)phenyl)-6-(3-(4-methyl-1,4-azaphosphino-1-yl)prop-1-ynyl)quinazolin-4-amine]
[1]
  EGFR inhibition inhibit % at 100 nM or IC50 (nM): ++ (>50% inhibition at 100 nM, or IC50 <100 nM for EGFR or ErbB2 kinases)
[2]
  IC50: < 100 nM
[3]; PO, 10 mg/Kg
  F: 36%
[3]; plasma, IV, 2 mg/Kg
  AUC(0-t): 5070 ng·h/mL
  Cmax: 1520 ng/mL
  clearance: 6.5
  AUC(0-inf): 5080 ng·h/mL
  half-life: 35.4 min
[3]; [11]
  Vd: 0.33 L
[3]; plasma, PO, 10 mg/Kg
  AUC(0-t): 8830 ng·h/mL
  Cmax: 2840 ng/mL
  AUC(0-inf): 9060 ng·h/mL
  half-life: 84.6 min
[4]; PO, 10 mg/Kg
  F: 89.6%
[4]; plasma, IV, 2 mg/Kg
  AUC(0-t): 2130 ng·h/mL
  Cmax: 1570 ng/mL
  clearance: 15.3
  AUC(0-inf): 2180 ng·h/mL
  half-life: 1190 min
[4]; [11]
  Vd: 7.92 L
[4]; plasma, PO, 10 mg/Kg
  AUC(0-t): 9700 ng·h/mL
  Cmax: 1800 ng/mL
  AUC(0-inf): 9780 ng·h/mL
  half-life: 690 min
[5]; PO, 10 mg/Kg
  F: 100%
[5]; beagle, plasma, IV, 2 mg/Kg
  AUC(0-t): 1480 ng·h/mL
  Cmax: 1150 ng/mL
  clearance: 22.3
  AUC(0-inf): 1490 ng·h/mL
  half-life: 148 min
[5]; beagle, plasma, IV, 2 mg/Kg, read-out: Vz
  Vd: 1.44 L
[5]; beagle, plasma, PO, 10 mg/Kg
  AUC(0-t): 7640 ng·h/mL
  Cmax: 2380 ng/mL
  AUC(0-inf): 7720 ng·h/mL
  half-life: 228 min
[6]; 50 mg/Kg, p.o. BID, 4 weeks
  tumor growth inhibition rate: 85%
[6]; 100/75 mg/Kg, p.o. BID, 4 weeks (suspended, resumed at 75 mg/Kg)
  tumor growth inhibition rate: 88%
[7]; 100 mg/Kg, bid, day 10
  body weight loss (average): 16.9%
[7]; suspension for 3 days, resumed at 75 mg/kg
  body weight after dosing suspension and resumption: recovered and remained normal

## C#Cc1cc(Nc2ncnc3ccc(-c4ccc(CN5CCP(C)(=O)CC5)o4)cc23)ccc1OCc1cccc(F)c1 [Example 23, N-(4-(3-fluorobenzyloxy)-3-ethynylphenyl)-6-(5-((4-methyl-1,4-azaphosphino-1-yl)methyl)furan-2-yl)quinazolin-4-amine]
[1]
  EGFR inhibition inhibit % at 100 nM or IC50 (nM): ++ (>50% inhibition at 100 nM, or IC50 <100 nM for EGFR or ErbB2 kinases)
[2]
  IC50: 100 to 1000 nM

## CS(=O)(=O)CCNCc1ccc(-c2ccc3ncnc(Nc4ccc(OCc5cccc(F)c5)c(Cl)c4)c3c2)o1 [lapatinib, Lapatinib]
[6]; 75 mg/Kg of free base, oral BID, 4 weeks
  tumor growth inhibition rate: 48%
[8]
  oral bioavailability (F): 32%
[9]
  oral bioavailability (F): 29%
[10]
  oral bioavailability (F): 63%

## Cc1cccc(COc2ccc(Nc3ncnc4ccc(-c5ccc(CN6CCP(C)(=O)CC6)o5)cc34)cc2Cl)[n+]1[O-] [Example 24, 2-((2-chloro-4-(6-(5-((4-methyl-1,4-azaphosphino-1-yl)methyl)furan-2-yl)quinazolin-4-ylamino)phenoxy)methyl)-6-methylpyridine 1-oxide]
[1]
  EGFR inhibition inhibit % at 100 nM or IC50 (nM): ++ (>50% inhibition at 100 nM, or IC50 <100 nM for EGFR or ErbB2 kinases)
[2]
  IC50: 100 to 1000 nM

## CP1(=O)CCN(Cc2ccc(-c3ccc4ncnc(Nc5ccc(OCc6cccc(F)c6)c(Cl)c5)c4c3)o2)CC1 [Example 1, N-(3-chloro-4-(3-fluorobenzyloxy)phenyl)-6-(5-((4-methyl-1,4-azaphosphino-1-yl)methyl)furan-2-yl)quinazolin-4-amine]
[1]
  EGFR inhibition inhibit % at 100 nM or IC50 (nM): ++ (>50% inhibition at 100 nM, or IC50 <100 nM for EGFR or ErbB2 kinases)
[2]
  IC50: < 100 nM
